{"source": "ChEMBL document CHEMBL3885881", "about": "“DrugMatrix”", "species_on_record": "Rattus norvegicus", "format": "toxicity, organism-based, Sprague-Dawley", "conditions": "in vivo, po, 24 h, route oral GAVAGE, time 1 day, vehicle 100 % SALINE; for ABSOLUTE BASOPHIL / ABSOLUTE EOSINOPHIL / ABSOLUTE LYMPHOCYTE / ABSOLUTE MONOCYTE / BASOPHIL / EOSINOPHIL / ERYTHROCYTE COUNT / HEMATOCRIT / HEMOGLOBIN / LEUKOCYTE COUNT / LYMPHOCYTE / MEAN CORPUSCULAR HEMOGLOBIN / MEAN CORPUSCULAR HEMOGLOBIN CONCENTRATION / MEAN CORPUSCULAR VOLUME / MONOCYTE / NEUTROPHIL / PLATELET COUNT: tissue Blood", "key": {"[1]": {"conditions": "0 mg/kg, vehicle control, dose level Control"}, "[2]": {"conditions": "0 mg/kg, vehicle control, tissue Plasma, dose level Control"}, "[3]": {"conditions": "2 mg/kg, tissue Plasma, dose level High"}}, "description": "DrugMatrix - Regimen: Single", "data": [{"compound": "COc1cccc2c1C(=O)c1c(O)c3c(c(O)c1C2=O)C[C@@](O)(C(C)=O)C[C@@H]3O[C@H]1C[C@H](N)[C@H](O)[C@H](C)O1", "note": "[DAUNORUBICIN]", "values": [{"measurement": "ABSOLUTE BASOPHIL", "setting": "[1]", "result": 73.3, "unit": "cells/µL"}, {"measurement": "ABSOLUTE EOSINOPHIL", "setting": "[1]", "result": 86.7, "unit": "cells/µL"}, {"measurement": "ABSOLUTE LYMPHOCYTE", "setting": "[1]", "result": 8400, "unit": "cells/µL"}, {"measurement": "ABSOLUTE MONOCYTE", "setting": "[1]", "result": 350, "unit": "cells/µL"}, {"measurement": "BASOPHIL", "setting": "[1]", "result": 0.63, "unit": "%"}, {"measurement": "EOSINOPHIL", "setting": "[1]", "result": 0.73, "unit": "%"}, {"measurement": "ERYTHROCYTE COUNT", "setting": "[1]", "result": 6.55, "unit": "x10E6/uL"}, {"measurement": "HEMATOCRIT", "setting": "[1]", "result": 42.83, "unit": "%"}, {"measurement": "HEMOGLOBIN", "setting": "[1]", "result": 13.6, "unit": "G/DL"}, {"measurement": "LEUKOCYTE COUNT", "setting": "[1]", "result": 11.33, "unit": "x10E3/uL"}, {"measurement": "LYMPHOCYTE", "setting": "[1]", "result": 74.77, "unit": "%"}, {"measurement": "MEAN CORPUSCULAR HEMOGLOBIN", "setting": "[1]", "result": 20.77, "unit": "pg"}, {"measurement": "MEAN CORPUSCULAR HEMOGLOBIN CONCENTRATION", "setting": "[1]", "result": 31.7, "unit": "G/DL"}, {"measurement": "MEAN CORPUSCULAR VOLUME", "setting": "[1]", "result": 65.53, "unit": "fL"}, {"measurement": "MONOCYTE", "setting": "[1]", "result": 3, "unit": "%"}, {"measurement": "NEUTROPHIL", "setting": "[1]", "result": 20.2, "unit": "%"}, {"measurement": "PLATELET COUNT", "setting": "[1]", "result": 1394.33, "unit": "x10E3/uL"}, {"measurement": "ALANINE AMINOTRANSFERASE", "setting": "[2]", "result": 34, "unit": "u/L"}, {"measurement": "ALBUMIN", "setting": "[2]", "result": 4.03, "unit": "G/DL"}, {"measurement": "ALKALINE PHOSPHATASE", "setting": "[2]", "result": 345.33, "unit": "u/L"}, {"measurement": "ASPARTATE AMINOTRANSFERASE", "setting": "[2]", "result": 69.67, "unit": "u/L"}, {"measurement": "BLOOD UREA NITROGEN", "setting": "[2]", "result": 14.33, "unit": "mg/dL"}, {"measurement": "CARBON DIOXIDE", "setting": "[2]", "result": 46, "unit": "mmol/L"}, {"measurement": "CHLORIDE", "setting": "[2]", "result": 102.67, "unit": "MEQ/L"}, {"measurement": "CHOLESTEROL", "setting": "[2]", "result": 85, "unit": "mg/dL"}, {"measurement": "CREATINE PHOSPHOKINASE", "setting": "[2]", "result": 292, "unit": "u/L"}, {"measurement": "CREATININE", "setting": "[2]", "result": 0.2, "unit": "mg/dL"}, {"measurement": "GLUCOSE", "setting": "[2]", "result": 168, "unit": "mg/dL"}, {"measurement": "LIPASE", "setting": "[2]", "result": 13, "unit": "u/L"}, {"measurement": "PHOSPHORUS", "setting": "[2]", "result": 11.2, "unit": "mg/dL"}, {"measurement": "POTASSIUM", "setting": "[2]", "result": 7.07, "unit": "MEQ/L"}, {"measurement": "SODIUM", "setting": "[2]", "result": 144.67, "unit": "MEQ/L"}, {"measurement": "TOTAL BILIRUBIN", "setting": "[2]", "result": 0.27, "unit": "mg/dL"}, {"measurement": "TOTAL PROTEIN", "setting": "[2]", "result": 6.57, "unit": "G/DL"}, {"measurement": "URIC ACID", "setting": "[2]", "result": 0.73, "unit": "mg/dL"}, {"measurement": "ABSOLUTE BASOPHIL", "setting": "2 mg/kg, dose level High", "result": 30, "unit": "cells/µL"}, {"measurement": "ABSOLUTE EOSINOPHIL", "setting": "2 mg/kg, dose level High", "result": 60, "unit": "cells/µL"}, {"measurement": "ABSOLUTE LYMPHOCYTE", "setting": "2 mg/kg, dose level High", "result": 7160, "unit": "cells/µL"}, {"measurement": "ABSOLUTE MONOCYTE", "setting": "2 mg/kg, dose level High", "result": 260, "unit": "cells/µL"}, {"measurement": "BASOPHIL", "setting": "2 mg/kg, dose level High", "result": 0.33, "unit": "%"}, {"measurement": "EOSINOPHIL", "setting": "2 mg/kg, dose level High", "result": 0.67, "unit": "%"}, {"measurement": "ERYTHROCYTE COUNT", "setting": "2 mg/kg, dose level High", "result": 6.43, "unit": "x10E6/uL"}, {"measurement": "HEMATOCRIT", "setting": "2 mg/kg, dose level High", "result": 42.57, "unit": "%"}, {"measurement": "HEMOGLOBIN", "setting": "2 mg/kg, dose level High", "result": 13.5, "unit": "G/DL"}, {"measurement": "LEUKOCYTE COUNT", "setting": "2 mg/kg, dose level High", "result": 9.23, "unit": "x10E3/uL"}, {"measurement": "LYMPHOCYTE", "setting": "2 mg/kg, dose level High", "result": 77.03, "unit": "%"}, {"measurement": "MEAN CORPUSCULAR HEMOGLOBIN", "setting": "2 mg/kg, dose level High", "result": 21.03, "unit": "pg"}, {"measurement": "MEAN CORPUSCULAR HEMOGLOBIN CONCENTRATION", "setting": "2 mg/kg, dose level High", "result": 31.73, "unit": "G/DL"}, {"measurement": "MEAN CORPUSCULAR VOLUME", "setting": "2 mg/kg, dose level High", "result": 66.3, "unit": "fL"}, {"measurement": "MONOCYTE", "setting": "2 mg/kg, dose level High", "result": 2.83, "unit": "%"}, {"measurement": "NEUTROPHIL", "setting": "2 mg/kg, dose level High", "result": 18.5, "unit": "%"}, {"measurement": "PLATELET COUNT", "setting": "2 mg/kg, dose level High", "result": 1328.67, "unit": "x10E3/uL"}, {"measurement": "ALANINE AMINOTRANSFERASE", "setting": "[3]", "result": 37.33, "unit": "u/L"}, {"measurement": "ALBUMIN", "setting": "[3]", "result": 3.93, "unit": "G/DL"}, {"measurement": "ALKALINE PHOSPHATASE", "setting": "[3]", "result": 397.67, "unit": "u/L"}, {"measurement": "ASPARTATE AMINOTRANSFERASE", "setting": "[3]", "result": 67.67, "unit": "u/L"}, {"measurement": "BLOOD UREA NITROGEN", "setting": "[3]", "result": 13.67, "unit": "mg/dL"}, {"measurement": "CARBON DIOXIDE", "setting": "[3]", "result": 39.33, "unit": "mmol/L"}, {"measurement": "CHLORIDE", "setting": "[3]", "result": 104.67, "unit": "MEQ/L"}, {"measurement": "CHOLESTEROL", "setting": "[3]", "result": 84, "unit": "mg/dL"}, {"measurement": "CREATINE PHOSPHOKINASE", "setting": "[3]", "result": 230.33, "unit": "u/L"}, {"measurement": "CREATININE", "setting": "[3]", "result": 0.27, "unit": "mg/dL"}, {"measurement": "GLUCOSE", "setting": "[3]", "result": 179, "unit": "mg/dL"}, {"measurement": "LACTATE DEHYDROGENASE", "setting": "[3]", "result": 60.33, "unit": "u/L"}, {"measurement": "LIPASE", "setting": "[3]", "result": 9.67, "unit": "u/L"}, {"measurement": "PHOSPHORUS", "setting": "[3]", "result": 11.57, "unit": "mg/dL"}, {"measurement": "POTASSIUM", "setting": "[3]", "result": 6.13, "unit": "MEQ/L"}, {"measurement": "SODIUM", "setting": "[3]", "result": 146, "unit": "MEQ/L"}, {"measurement": "TOTAL BILIRUBIN", "setting": "[3]", "result": 0.2, "unit": "mg/dL"}, {"measurement": "TOTAL PROTEIN", "setting": "[3]", "result": 6.37, "unit": "G/DL"}, {"measurement": "URIC ACID", "setting": "[3]", "result": 1, "unit": "mg/dL"}]}]}
